Here are results for 28 compounds from patent US11318157B2, “6-6 bicyclic aromatic ring substituted nucleoside analogues for use as PRMT5 inhibitors” (Janssen Pharmaceutica NV, priority 2015, dated 2022).

One assay has as its target T1, PRMT5-MEP50 enzyme (Homo sapiens, UniProt O14744).
T1 construct: One virus expresses full length human PRMT5 with Flag-tag at N-terminus; Flag (N); purchased Charles River (Argenta); host or cells: insect cells (Sf9), baculovirus co-infection
Description: In vitro assay 1b: high throughput mass spectrometer assay of SAH formation, 1.25 nM enzyme, 120 min. The note with it: averaged values; PRMT5-MEP50, 1.25 nM enzyme, 120 min; read-out: pIC50 Assay 1b (converted). The format is biochemical. The source says: Experimental Procedures In Vitro Assay (Assay 1a and 1b)
PRMT5-MEP50 enzyme was purchased from Charles River (Argenta). The enzyme complex was produced in insect cells (Sf9) infected simultaneously with two baculoviruses. One virus expresses full length human PRMT5 with Flag-tag at N-terminus, the second virus expresses full length MEP50 with His6-TEV cleavage at N-terminus. The protein was affinity purified using anti-Flag (M2) beads eluted with 3×FLAG peptide, followed by His-Select eluted with 0.5M imidazole. Eluted protein was then dialysed against tris-buffered saline (TBS) (pH 8.0) containing 20% glycerol and 3 mM dithiothreitol (DTT).
Full-length untagged human recombinant histone H2A (residues 1-130, Genbank Accession #NM_021052 MW=14.1 kDa) expressed in E. coli was purchased from Reaction Biology Corporation, Cat #HMT-11-146. Reagents used for making reaction buffer or stopping reaction were purchased including Tris base (Sigma Cat #T-1503), NaCl (Sigma Cat #RGF-3270), MgCl2 (Sigma Cat #M0250), DTTI (Invitrogen Cat #15508-013) and Formic Acid (Riedel deHaen, Cat #33015)
High Throughput Mass Spectrometer Assay
PRMT5 catalyzes the sequential methylations of the terminal nitrogen atoms on the guanidine groups of arginine residues within proteins using co-substrate S-adenosyl-L-methionine (AdoMet, SAM), forming mono-methyl (MMA), symmetric-dimethyl arginine (sDMA) and S-adenosyl-L-homocysteine (AdoHcy, SAH). The enzyme activity was determined by following the product SAH formation using high throughput mass spectrometry (Agilent Rapidfire 300 System coupled to a Sciex 4000 series QTrap® triple-quad MS/MS). The reaction buffer was 20 mM Tris-HCl, pH 8.5, 50 mM NaCl, 5 mM MgCl2 and 1 mM DTT. The reaction activity was stopped using 1% formic acid (final concentration).
The IC50 Studies were performed using eleven point dosing series made for each compound by serially diluted 1:2 in dimethyl sulfoxide (DMSO), with point 12 being a DMSO control. Compounds were first spotted to plates, and followed by addition of 2 μM SAM and 0.6 μM H2A (histone H2A) solution mixture. The same volume of enzyme solution was added to initiate the enzymatic reactions. The final concentrations of the reaction are at 1 μM SAM, 0.3 μM H2A and 10 nM enzyme (assay 1a) or 1.25 nM enzyme (assay 1b). The reaction was incubated at 30° C. for 60 minutes (min) when 10 nM enzyme was used and for 120 min when 1.25 nM enzyme was used. Subsequently, the reaction was quenched by addition of formic acid to a final concentration of 1%. The inhibitions of SAH formation in the presence of compounds were calculated as a percentage of the control relative to the uninhibited reaction as a function of inhibitor concentration. The data were fit as follows: Y=Bottom+(Top−Bottom)/(1+10^((log IC50−X)*h))
where IC50 is the inhibitor concentration (same unit as X) at 50% inhibition and h is the Hill slope. Y is percent of inhibition, X is log of compound concentration. Bottom and Top are the plateaus in same units as Y.

In assay [1] the test system is nuclear symmetric Arginine dimethylation in A549 cells. Description: PD assay (assay 2): inhibition of nuclear symmetric Arginine dimethylation (SYM10 immunohistochemistry), 48 h. The format is cell-based. Conditions: Homo sapiens. How it is done:
Experimental Procedure PD Assay (Assay 2)
A549 cells (ATCC, Cat #CCL-185) were cultured in Dulbecco's Modified Eagle's Medium (DMEM) (Sigma, Cat #D5796), supplemented with 10% Fetal Calf Serum (FCS) (HyClone™, Cat #SV30160.03), 100 mM Sodium Pyruvate (Sigma, Cat #S8636), 200 mM L-Glutamine (Sigma, Cat #G7513) and 50 mg/mL gentamycin (Gibco, Cat #15750-037).
Reagents used for buffers were purchased: Dulbecco's phosphate buffered saline (DPBS) without Ca/Mg (Sigma, Cat #D8537), phosphate buffered saline (PBS) 10× (Roche, Cat #11 666 789 001), Formalin solution 10% (Sigma, HT50-1-128-4L), Methanol 100% (Sigma, Cat #32213-2.5L), Triton X-100 (Acros, Cat #215680010), Bovine Serum Albumin (BSA) (Sigma, Cat #A2153), Alexa fluor 488 goat anti-rabbit antibody (Life Technologies, Cat #A11034), HCS CellMask Deep Red Stain (Life Technologies, Cat #H32721), Hoechst Stain (Life Technologies, Cat #33258), Anti-dimethyl-Arginine, sym (SYM10) antibody (Millipore, 07-412).
Immunohistochemistry Procedure
Cells were plated at 400 cells/40 μL/well in 384 well black μplates clear bottom (Perkin Elmer) and overnight incubated at 37° C., 5% CO2. […] 80 nL of the respective dilution of the compounds was added using the Labcyte POD 810 (Labcyte) reaching a final DMSO concentration of 0.2% in cell culture. After an incubation period of 48 h at 37° C. and 5% CO2, cells were fixed in 10% formalin solution for 15 min at room temperature and 20 min in ice-cold methanol, after which they were washed 3× in DPBS. Subsequently, the cells were blocked for 1 h in blocking buffer (PBS+1% BSA and 0.5% Triton X-100) and incubated overnight at 4° C. with the SYM10 antibody diluted 1/2000 in blocking buffer. The cells were washed 3× with washing buffer (PBS+0.1% Triton X-100) and incubated with the Alexa fluor 488 goat anti-rabbit antibody diluted 1/200 in blocking buffer for 1 h at room temperature. Subsequently, they were washed 3× with washing buffer and incubated for 30 min at room temperature with PBS containing a 1/5000 dilution of Hoechst Stain and a 1/5000 dilution of the HCS CellMask Deep Red Stain. After a final wash with PBS, the plates were imaged using the 10×W lens of the Opera® system (Perkin Elmer Life Sciences) using following settings (values in nm):
In the above equations, the following variable names are used: […]
In the above equations, the following controls were used for normalization: […]
Low control: minimum level of symmetrically dimethylated Arginines (cells treated with reference compound at 10 μM).
High control: maximum level of symmetrically dimethylated Arginines (DMSO treated cells).
IC50 and pIC50 (−log IC50) values were calculated using the appropriate software.
The pIC50 values in the Table below are averaged values (Co. No. means compound number; n.d. means not determined).

Setting [2] is: A549, averaged values, PD assay, A549 cells, symmetric Arginine dimethylation, read-out: pIC50 Assay 2 (converted).

Each structure is given as a SMILES string. Like-named read-outs stand apart in the source and are kept apart here.

T1 sequence (O14744 whole entry): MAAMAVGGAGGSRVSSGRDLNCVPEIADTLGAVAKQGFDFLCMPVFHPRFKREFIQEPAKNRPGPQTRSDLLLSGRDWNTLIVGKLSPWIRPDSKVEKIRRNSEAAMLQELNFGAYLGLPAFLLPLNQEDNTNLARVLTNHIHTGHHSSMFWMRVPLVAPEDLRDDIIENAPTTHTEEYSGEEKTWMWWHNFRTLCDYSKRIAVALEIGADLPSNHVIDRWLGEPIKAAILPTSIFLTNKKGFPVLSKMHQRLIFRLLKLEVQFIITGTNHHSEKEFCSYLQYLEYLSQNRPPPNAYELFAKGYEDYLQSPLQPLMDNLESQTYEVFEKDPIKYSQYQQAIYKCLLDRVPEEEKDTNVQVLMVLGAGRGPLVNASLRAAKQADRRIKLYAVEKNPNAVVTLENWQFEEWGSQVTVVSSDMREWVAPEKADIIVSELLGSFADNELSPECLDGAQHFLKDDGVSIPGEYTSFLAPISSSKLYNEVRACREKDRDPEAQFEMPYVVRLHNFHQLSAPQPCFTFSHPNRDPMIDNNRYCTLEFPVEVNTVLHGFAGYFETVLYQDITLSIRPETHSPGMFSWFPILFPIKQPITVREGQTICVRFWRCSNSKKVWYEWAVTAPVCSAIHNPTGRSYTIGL
T1 sequence (Q9BQA1 whole entry partner): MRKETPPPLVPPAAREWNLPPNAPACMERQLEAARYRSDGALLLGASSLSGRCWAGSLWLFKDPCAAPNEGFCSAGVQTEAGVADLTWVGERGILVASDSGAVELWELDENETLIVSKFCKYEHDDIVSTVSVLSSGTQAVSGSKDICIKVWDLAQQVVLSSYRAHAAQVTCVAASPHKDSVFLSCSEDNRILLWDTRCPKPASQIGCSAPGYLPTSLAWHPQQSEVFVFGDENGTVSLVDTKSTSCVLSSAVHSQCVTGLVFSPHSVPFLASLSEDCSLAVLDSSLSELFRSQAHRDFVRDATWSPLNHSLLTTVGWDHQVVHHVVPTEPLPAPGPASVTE

With `CNc1ncnc2c1ccn2[C@@H]1C[C@H](CCc2ccc3ccc(NCC(F)F)nc3c2)[C@@H](O)[C@H]1O` [Compound 184], the IC50 was 2 nM at PRMT5-MEP50 enzyme and 63.1 nM in assay [1] (setting [2]).
For `CNc1ncnc2c1ccn2[C@@H]1C[C@H](COc2ccc3cc(Br)c(N)nc3c2)[C@@H](O)[C@H]1O` [Compound 237] the same measures were 1.58 nM and 6.31 nM.
As for `CNc1ccc2ccc(OC[C@H]3C[C@@H](n4ccc5c(NC)ncnc54)[C@H](O)[C@@H]3O)cc2n1` [Compound 226], the IC50 was 6.31 nM at PRMT5-MEP50 enzyme and 100 nM in assay [1] (setting [2]).
Take `COc1ncnc2c1ccn2[C@@H]1C[C@H](CCc2ccc3ccc(NCC(F)(F)F)nc3c2)[C@@H](O)[C@H]1O` [Compound 188]: the IC50 is 39.8 nM on PRMT5-MEP50 enzyme and 631 nM in assay [1] (setting [2]).
In the same order, the values of `Nc1ncnc2c1ccn2[C@@H]1C[C@H](CCc2ccc3cc(Br)c(NC4CC4)nc3c2)[C@@H](O)[C@H]1O` [Compound 153] are 200 nM and 31.6 nM.
In the same order, the values of `Nc1ncnc2c1ccn2[C@@H]1C[C@H](OCc2ccc3ccc(NCC4CC4)nc3c2)[C@@H](O)[C@H]1O` [Compound 160] are 0.794 nM and 15.8 nM.
In the case of `CNc1ncnc2c1ccn2[C@@H]1C[C@H](CCc2ccc3cc(F)c(N)nc3c2)[C@@H](O)[C@H]1O` [Compound 202], the IC50 on PRMT5-MEP50 enzyme was 1.58 nM; in assay [1] (setting [2]), 15.8 nM.
In the same order, the values of `C=Cc1ncnc2c1ccn2[C@@H]1C[C@H](CCc2ccc3ccc(NCC4CC4)nc3c2)[C@@H](O)[C@H]1O` [Compound 211] are 3.16 nM and ~2570 nM.
On to `Nc1nc2cc(CC[C@H]3O[C@@H](n4ccc5c(N)ncnc54)[C@H](O)[C@@H]3O)ccc2cc1Cl` [Compound 158], for which the IC50 at PRMT5-MEP50 enzyme is 0.126 nM; in assay [1] (setting [2]), 3.16 nM.
`Nc1nc2cc(CC[C@H]3C[C@@H](n4ccc5ncccc54)[C@H](O)[C@@H]3O)ccc2cc1Cl` [Compound 248]: the figures for the IC50 (at PRMT5-MEP50 enzyme; in assay [1] (setting [2])) were 50.1 nM and 158 nM, respectively.
In the same order, the values of `CNc1ncnc2c1ccn2[C@@H]1O[C@H](CCc2ccc3cc(Br)c(N)nc3c2)[C@@H](O)[C@H]1O` [Compound 239] are 10 nM and 25.1 nM.
For `Nc1ncnc2c1ccn2[C@@H]1C[C@H](CCc2ccc3ccc(Nc4ccc(Cl)cc4)nc3c2)[C@@H](O)[C@H]1O` [Compound 161] the same measures were 1.58 nM and 39.8 nM.
In the same order, the values of `Nc1nc2cc(CC[C@H]3C[C@@H](n4ccc5c(N)nc(Cl)nc54)[C@H](O)[C@@H]3O)ccc2cc1Cl` [Compound 240] are < 0.2 nM and < 1.17 nM.
Consider `Nc1nc2cc(OC[C@H]3C[C@@H](n4ccc5c(N)ncnc54)[C@H](O)[C@@H]3O)ccc2cc1Cl` [Compound 223], for which the IC50 is 0.2 nM on PRMT5-MEP50 enzyme and 1.26 nM in assay [1] (setting [2]).
As to `CNc1ncnc2c1ccn2[C@@H]1C[C@H](CCc2ccc3ccc(NC4CCC4)nc3c2)[C@@H](O)[C@H]1O` [Compound 183], the results for the IC50 (on PRMT5-MEP50 enzyme; in assay [1] (setting [2])) were 0.501 nM and 6.31 nM, respectively.
For `CNc1nc2cc(CC[C@H]3C[C@@H](n4ccc5c(N)ncnc54)[C@H](O)[C@@H]3O)ccc2cc1F` [Compound 157] the same measures were 631 nM and 501 nM.
For `Nc1ncnc2c1ccn2[C@@H]1C[C@H](CCc2ccc3ccc(NC4CCC4)nc3c2)[C@@H](O)[C@H]1O` [Compound 156] the same measures were 0.316 nM and < 1.17 nM.
In the case of `CNc1ncnc2c1ccn2[C@@H]1C[C@H](CCc2ccc3cc(Br)c(N)nc3c2)[C@@H](O)[C@H]1O` [Compound 238], the values for the IC50 (at PRMT5-MEP50 enzyme; in assay [1] (setting [2])) were 0.794 nM and 1.26 nM, respectively.
In the same order, the values of `CNc1ncnc2c1ccn2[C@@H]1C[C@H](CCc2ccc3ccc(NC(C)C)nc3c2)[C@@H](O)[C@H]1O` [Compound 206] are 1.58 nM and 25.1 nM.
Regarding `COc1ncnc2c1ccn2[C@@H]1C[C@H](CCc2ccc3ccc(NCC(F)F)nc3c2)[C@@H](O)[C@H]1O` [Compound 182], the results for the IC50 (on PRMT5-MEP50 enzyme; in assay [1] (setting [2])) were 6.31 nM and 316 nM, respectively.
Regarding `Nc1ncnc2c1ccn2[C@@H]1C[C@H](CCc2ccc3ccc(NCC4CC4)nc3c2)[C@@H](O)[C@H]1O` [Compound 74], the IC50 at PRMT5-MEP50 enzyme is 0.126 nM; in assay [1] (A549, read-out: pIC50 Assay 2 (converted)), 0.398 nM.
For `COc1ncnc2c1ccn2[C@@H]1C[C@H](CCc2ccc3cc(F)c(N)nc3c2)[C@@H](O)[C@H]1O` [Compound 204], the IC50 was 3.98 nM at PRMT5-MEP50 enzyme and 63.1 nM in assay [1] (setting [2]).
Take `Nc1ncnc2c1ccn2[C@@H]1O[C@H](COc2ccc3cccnc3c2)[C@@H](O)[C@H]1O` [Compound 1]: the IC50 on PRMT5-MEP50 enzyme was 12.6 nM; in assay [1] (setting [2]) it was 79.4 nM.
In the same order, the values of `Nc1nc2cc(CC[C@H]3C[C@@H](n4ccc5nccnc54)[C@H](O)[C@@H]3O)ccc2cc1Cl` [Compound 250] are 31.6 nM and 200 nM.
For `Nc1ncc2ccn([C@@H]3C[C@H](CCc4ccc5cc(Cl)c(N)nc5c4)[C@@H](O)[C@H]3O)c2n1` [Compound 243] the same measures were 0.794 nM and < 1.17 nM.
For `CNc1ncnc2c1ccn2[C@@H]1C[C@H](CCc2ccc3ccc(NCC4CC4)nc3c2)[C@@H](O)[C@H]1O` [Compound 209] the same measures were 0.316 nM and 15.8 nM.
Consider `Nc1nc2cc(CC[C@H]3C[C@@H](n4ccc5cncnc54)[C@H](O)[C@@H]3O)ccc2cc1Cl` [Compound 242], for which the values for the IC50 (on PRMT5-MEP50 enzyme; in assay [1] (setting [2])) were 1 nM and < 1.17 nM, respectively.
In the same order, the values of `Nc1nc2cc(CC[C@H]3C[C@@H](n4ccc5cnc(Cl)nc54)[C@H](O)[C@@H]3O)ccc2cc1Cl` [Compound 241] are 2.51 nM and < 1.17 nM.
